Tests used:
[1] = target: T1, purified LasB protein from P. aeruginosa (Pseudomonas aeruginosa, UniProt P14756); test: Fluorometric assay to determine Ki (Assay 2); type: biochemical
T1 construct: purchased Merck or Charles River Laboratories
Description: (§1) Experiments were therefore conducted (1) to measure the potency of inhibition of compounds of the invention against purified Pseudomonas aeruginosa LasB enzyme and also experiments were conducted (2) to measure the ability of compounds of the invention to inhibit LasB-catalysed elastin degradation. The first assay uses a commercial fluorescent synthetic peptide and purified LasB enzyme. The LasB hydrolysis kinetics are measured allowing the determination of the IC50 and Ki of the inhibitors; the second is a more physiological assay using dialysed Pseudomonas aeruginosa supernatant as source of enzyme, plus its natural substrate Elastin. It is an “end point assay” that determines the percentage of LasB inhibition by each compound for one particular time point and inhibitor concentration. Technical details are described below:
This assay uses commercially available substrate (Abz-Ala-Gly-Leu-Ala-p-Nitro-Benzyl-Amide (Ex: 340 nm, Em: 415 nm) from Peptide International) and purified LasB protein from P. aeruginosa (provided by Merck or Charles River Laboratories). It is performed to determine LasB elastase activity and assess compound inhibition in 96-well plate format. Some compounds of Formula (I) were assessed using the method of Assay 1 (described below). Other compounds of Formula (I) were assessed using the alternative but equivalent method of Assay 2 (described below).
Method: 10 to 140 ng/ml purified LasB is incubated with 250 μM Abz-Ala-Gly-Leu-Ala-p-Nitro-Benzyl-Amide in 50 mM Tris-HCl pH 7.4, 2.5 mM CaCl2), 0.01% of Triton X100 at 37° C. LasB activity (corresponding to fluorescence emission induced by substrate hydrolysis) is measured over 30 min at 37° C. with a fluorescence plate reader such as the Perkin Elmer Envision or similar. Different range of inhibitor concentrations are routinely assessed depending of inhibitor potency from 0.006 to 200 μM (Assay 1; 2-fold dilutions series) or from 0.0016 to 200 μM (Assay 2; 2-fold dilutions series) in order to determine IC50.
The equation used to calculate the Ki from IC50 is: Ki=IC50/(1+([S]/Km)) where [S]=250 μM and Km=214 μM.

[2] = target: T2, LasB elastase activity in dialysed supernatant from P. aeruginosa strain PA01 (Pseudomonas aeruginosa, UniProt P14756); test: Elastin Congo Red assay to determine % inhibition (Assay 2); type: biochemical; settings: read-out: Elastin hydrolysis % inhibition @ 50/25 μM inhibitor concentration Assay 2
T2 construct: uses as source of enzyme dialysed supernatant from P. aeruginosa; endogenous in cells; host or cells: P. aeruginosa strain PA01 culture supernatant, filtered and dialysed
Description: as §1
The Elastin assay uses as source of enzyme dialysed supernatant from P. aeruginosa and the elastin congo red as substrate. The natural LasB substrate, elastin, is complexed with the congo red dye (Elastin Congo Red, ECR). The elastolysis activity from the culture supernatant will degrade elastin and release the congo red dye into the supernatant. This red dye release can be measured with a spectrophotometer. Some compounds of Formula (I) were assessed using the method of Assay 1 (described below). Other compounds of Formula (I) were assessed using the alternative but equivalent method of Assay 2 (described below).
Method (Assay 2): To determine LasB elastase activity and assess compound inhibition, an overnight culture of P. aeruginosa strain PA01 is diluted in LB medium. After reaching an OD600 nm of 0.6, this culture is diluted and incubated for additional 18-24 h in a shaking incubator. Culture supernatants are recovered by centrifugation and filtrated through a […] filter. These supernatants are dialysed (filtration molecules <20 kDa) into a 50 mM Tris-HCl pH 7.4, 2.5 mM CaCl2 solution at 4° C. under agitation for 24 h. Supernatant dialysed is then mixed volume/volume with the ECR suspension (20 mg/mL of ECR in 100 mM Tris-HCl pH 7.4 buffer supplemented with 1 mM CaCl2) supplemented with TritonX 100 (final concentration of 0.01%) in presence of DMSO (positive control) and/or different concentrations of compound (routinely […]). As a negative control, the dialysed supernatant is replaced by Tris-HCl solution (50 mM Tris-HCl pH 7.4, 2.5 mM CaCl2). The mixed reaction is then incubated overnight in a 37° C. shaking incubator. The reaction supernatant is recovered by centrifugation and the release of congo-red is measured by its absorbance at 495 nm (OD495 nm).
Percentage inhibition is determined using the following equation: ((OD495 nm value of positive control−OD495 nm value of negative control)−(OD495 nm value of treated supernatant−OD495 nm value of negative control))/(OD495 nm value of positive control−OD495 nm value of negative control)×100.

T1 sequence (P14756 198-498): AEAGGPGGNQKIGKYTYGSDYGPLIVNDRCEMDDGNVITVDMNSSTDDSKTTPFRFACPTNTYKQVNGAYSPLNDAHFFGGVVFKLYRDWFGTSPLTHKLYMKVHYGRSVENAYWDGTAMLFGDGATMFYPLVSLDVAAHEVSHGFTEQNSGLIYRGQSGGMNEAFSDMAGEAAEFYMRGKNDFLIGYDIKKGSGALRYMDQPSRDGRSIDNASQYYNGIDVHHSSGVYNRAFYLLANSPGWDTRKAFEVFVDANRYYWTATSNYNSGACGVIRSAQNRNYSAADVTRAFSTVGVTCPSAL
T2 sequence (P14756 198-498): as above

| SMILES | Ki [1] | inhibition at 50 µM [2] |
| --- | --- | --- |
| COc1cc2nc(CNC(=O)C3(CC(=O)O)Cc4ccccc4C3)sc2cc1OC [Example 114, 2-[2-[(5,6-dimethoxy-1,3-benzothiazol-2-yl)methylcarbamoyl]indan-2-yl]acetic acid] | < 0.3 µM | > 60% |
| O=C(O)CC1(C(=O)NCc2nc3cc4c(cc3s2)OCO4)Cc2ccccc2C1 [Example 115, 2-[2-([1,3]dioxolo[4,5-f][1,3]benzothiazol-6-ylmethylcarbamoyl)indan-2-yl]acetic acid] | < 0.3 µM | > 60% |
| O=C(O)CC1(C(=O)NCc2nc3ccccc3s2)Cc2cc(F)c(F)cc2C1 [Example 120, 2-(2-((benzo[d]thiazol-2-ylmethyl)carbamoyl)-5,6-difluoro-2,3-dihydro-1H-inden-2-yl)acetic acid] | < 0.3 µM | > 60% |
| COc1cc2sc(CNC(=O)C3(CC(=O)O)Cc4ccccc4C3)nc2cc1N1CC(N(C)C)C1 [Example 122, 2-(2-(((5-(3-(dimethylamino)azetidin-1-yl)-6-methoxybenzo[d]thiazol-2-yl)methyl)carbamoyl)-2,3-dihydro-1H-inden-2-yl)acetic acid] | < 0.3 µM | > 60% |
| COc1cc2sc(CNC(=O)C3(CC(=O)O)Cc4ccccc4C3)nc2cc1N1CC([N+](C)(C)C)C1 [Example 123, 2-(2-(((6-methoxy-5-(3-(trimethylammonio)azetidin-1-yl)benzo[d]thiazol-2-yl)methyl)carbamoyl)-2,3-dihydro-1H-inden-2-yl)acetate] | < 0.3 µM | > 60% |
| COc1cc2sc(CNC(=O)C3(CC(=O)O)Cc4cc(F)c(F)cc4C3)nc2cc1OCCCN(C)C [Example 124, 2-(2-(((5-(3-(dimethylamino)propoxy)-6-methoxybenzo[d]thiazol-2-yl)methyl)carbamoyl)-5,6-difluoro-2,3-dihydro-1H-inden-2-yl)acetic acid] | < 0.3 µM | > 60% |
| COc1cc2sc(CNC(=O)C3(CC(=O)O)Cc4cc(F)c(F)cc4C3)nc2cc1OCCC[N+](C)(C)C [Example 125, 2-(5,6-difluoro-2-(((6-methoxy-5-(3-(trimethylammonio)propoxy)benzo[d]thiazol-2-yl)methyl)carbamoyl)-2,3-dihydro-1H-inden-2-yl)acetate] | < 0.3 µM | > 60% |
| COc1cc2sc(CNC(=O)C3(CC(=O)O)Cc4ccccc4C3)nc2cc1OCCN(C)C [Example 126, 2-(2-(((5-(2-(dimethylamino)ethoxy)-6-methoxybenzo[d]thiazol-2-yl)methyl)carbamoyl)-2,3-dihydro-1H-inden-2-yl)acetic acid] | < 0.3 µM | > 60% |
| O=C(O)CC1(C(=O)NCc2nc3ccc(OC(F)(F)F)cc3s2)Cc2ccccc2C1 [Example 128, 2-[2-[[6-(trifluoromethoxy)-1,3-benzothiazol-2-yl]methylcarbamoyl]indan-2-yl]acetic acid] | < 0.3 µM | > 60% |
